Measurements reported in ChEMBL document CHEMBL3885861, “Open TG-GATES”.

Species: Rattus norvegicus
Test: Open TG-GATES - Regimen: Daily Repeat
Type: toxicity, organism-based, Sprague-Dawley
Design: regimen Daily Repeat, gender Male, age 6 weeks
Conditions: in vivo, po, route gavage; for Eos / Hb / Ht / Lym / MCH / MCHC / MCV / Mono / Neu / Plat / RBC / Ret / WBC / APTT / Bas / PT: tissue Blood; for KIDNEY_L / KIDNEY_R / KIDNEY_TOTAL: tissue Kidney; for LIVER: tissue Liver; for ALT / AST / BUN / CRE / Ca / DBIL / GLC / IP / K / LDH / Na / PL / RALB / TBIL / TC / TG / TP / gamma-GTP / ALP: tissue Plasma
[1] = 300 mg/kg, 72 h, dose level Middle, time 3 day
[2] = 300 mg/kg, […], dose level Middle, time 7 day
[3] = 300 mg/kg, […], dose level Middle, time 14 day
[4] = 300 mg/kg, […], dose level Middle, time 28 day
[5] = 1000 mg/kg, 72 h, dose level High, time 3 day
[6] = 1000 mg/kg, […], dose level High, time 7 day
[7] = 1000 mg/kg, […], dose level High, time 14 day
[8] = 1000 mg/kg, […], dose level High, time 28 day

Compound: C[C@H](CS)C(=O)N1CCC[C@H]1C(=O)O [CAPTOPRIL]
- Eos [1]: 1.2%
- Hb [1]: 13.3 g/dL
- Ht [1]: 40.2%
- Lym [1]: 79.4%
- MCH [1]: 21.4 pg
- MCHC [1]: 33.1%
- MCV [1]: 64.5 fL
- Mono [1]: 4.2%
- Neu [1]: 15.2%
- Plat [1]: 111.4 x10_4/uL
- RBC [1]: 623.2 x10_4/ul
- Ret [1]: 7.7%
- WBC [1]: 92.7 x10_2/uL
- KIDNEY_L [1]: 1.1 g
- KIDNEY_R [1]: 1.1 g
- KIDNEY_TOTAL [1]: 2.2 g
- LIVER [1]: 12.3 g
- ALT [1]: 40.6 IU/L
- AST [1]: 61 IU/L
- BUN [1]: 17.8 mg/dL
- CRE [1]: 0.5 mg/dL
- Ca [1]: 11.5 mg/dL
- DBIL [1]: 0.022 mg/dL
- GLC [1]: 195.4 mg/dL
- IP [1]: 8.8 mg/dL
- K [1]: 5.1 meq/L
- LDH [1]: 89 IU/L
- Na [1]: 136 meq/L
- PL [1]: 143.4 mg/dL
- RALB [1]: 4.2 g/dL
- TBIL [1]: 0.4 mg/dL
- TC [1]: 76 mg/dL
- TG [1]: 73.8 mg/dL
- TP [1]: 6.1 g/dL
- gamma-GTP [1]: 0.8 IU/L
- TERMINAL_BW [2]: 259.5 g
- TERMINAL_BW [3]: 288.5 g
- TERMINAL_BW [4]: 322 g
- APTT [2]: 16.4 s
- Bas [2]: 0%
- Eos [2]: 1.2%
- Hb [2]: 13.3 g/dL
- Ht [2]: 39.7%
- Lym [2]: 85.2%
- MCH [2]: 21.2 pg
- MCHC [2]: 33.4%
- MCV [2]: 63.6 fL
- Mono [2]: 4.6%
- Neu [2]: 9.2%
- Plat [2]: 127.2 x10_4/uL
- RBC [2]: 625.8 x10_4/ul
- Ret [2]: 4.7%
- WBC [2]: 127.6 x10_2/uL
- APTT [3]: 16.6 s
- Bas [3]: 0%
- Eos [3]: 1%
- Hb [3]: 13 g/dL
- Ht [3]: 38.6%
- Lym [3]: 83.2%
- MCH [3]: 20.5 pg
- MCHC [3]: 33.7%
- MCV [3]: 60.7 fL
- Mono [3]: 4%
- Neu [3]: 11.4%
- PT [3]: 11.7 s
- Plat [3]: 128.4 x10_4/uL
- RBC [3]: 636.4 x10_4/ul
- Ret [3]: 4.4%
- WBC [3]: 183.2 x10_2/uL
- APTT [4]: 15.5 s
- Bas [4]: 0%
- Eos [4]: 1%
- Hb [4]: 14 g/dL
- Ht [4]: 41.6%
- Lym [4]: 82.2%
- MCH [4]: 19.3 pg
- MCHC [4]: 33.7%
- MCV [4]: 57.4 fL
- Mono [4]: 3.6%
- Neu [4]: 13.6%
- PT [4]: 11.9 s
- Plat [4]: 112.2 x10_4/uL
- RBC [4]: 724.6 x10_4/ul
- Ret [4]: 2.9%
- WBC [4]: 165.2 x10_2/uL
- KIDNEY_L [2]: 1.2 g
- KIDNEY_R [2]: 1.2 g
- KIDNEY_TOTAL [2]: 2.3 g
- KIDNEY_L [3]: 1.2 g
- KIDNEY_R [3]: 1.3 g
- KIDNEY_TOTAL [3]: 2.5 g
- KIDNEY_L [4]: 1.3 g
- KIDNEY_R [4]: 1.4 g
- KIDNEY_TOTAL [4]: 2.7 g
- LIVER [2]: 11.7 g
- LIVER [3]: 12.4 g
- LIVER [4]: 12.4 g
- ALT [2]: 32.8 IU/L
- AST [2]: 63.2 IU/L
- BUN [2]: 20.6 mg/dL
- CRE [2]: 0.6 mg/dL
- Ca [2]: 11 mg/dL
- DBIL [2]: 0.006 mg/dL
- GLC [2]: 192 mg/dL
- IP [2]: 8 mg/dL
- K [2]: 4.8 meq/L
- LDH [2]: 109.6 IU/L
- Na [2]: 138.2 meq/L
- PL [2]: 132 mg/dL
- RALB [2]: 3.8 g/dL
- TBIL [2]: 0.3 mg/dL
- TC [2]: 72.8 mg/dL
- TG [2]: 73.4 mg/dL
- TP [2]: 5.8 g/dL
- gamma-GTP [2]: 2.2 IU/L
- ALP [3]: 824.2 IU/L
- ALT [3]: 40.2 IU/L
- AST [3]: 66.6 IU/L
- BUN [3]: 24.4 mg/dL
- CRE [3]: 0.6 mg/dL
- DBIL [3]: 0.012 mg/dL
- GLC [3]: 203.6 mg/dL
- IP [3]: 7.8 mg/dL
- K [3]: 4.6 meq/L
- LDH [3]: 86.6 IU/L
- Na [3]: 135.2 meq/L
- PL [3]: 151 mg/dL
- RALB [3]: 3.8 g/dL
- TBIL [3]: 0.3 mg/dL
- TC [3]: 81.4 mg/dL
- TG [3]: 67 mg/dL
- TP [3]: 5.9 g/dL
- gamma-GTP [3]: 1.4 IU/L
- ALP [4]: 617.4 IU/L
- ALT [4]: 35.4 IU/L
- AST [4]: 65.8 IU/L
- BUN [4]: 30.8 mg/dL
- CRE [4]: 0.6 mg/dL
- DBIL [4]: 0.024 mg/dL
- GLC [4]: 191.2 mg/dL
- IP [4]: 7.4 mg/dL
- K [4]: 4.6 meq/L
- Na [4]: 136.8 meq/L
- PL [4]: 156.6 mg/dL
- RALB [4]: 4 g/dL
- TBIL [4]: 0.4 mg/dL
- TC [4]: 84.8 mg/dL
- TG [4]: 79 mg/dL
- TP [4]: 6.1 g/dL
- gamma-GTP [4]: 0.4 IU/L
- TERMINAL_BW [5]: 233.8 g
- APTT [5]: 16.1 s
- Bas [5]: 0%
- Eos [5]: 1.2%
- Hb [5]: 13.3 g/dL
- Ht [5]: 39.9%
- Lym [5]: 80.6%
- MCH [5]: 21.3 pg
- MCHC [5]: 33.2%
- MCV [5]: 64 fL
- Mono [5]: 5.2%
- Neu [5]: 13.4%
- PT [5]: 11.1 s
- Plat [5]: 122.3 x10_4/uL
- RBC [5]: 623.8 x10_4/ul
- Ret [5]: 6.2%
- KIDNEY_L [5]: 1.1 g
- KIDNEY_R [5]: 1.1 g
- KIDNEY_TOTAL [5]: 2.2 g
- LIVER [5]: 11 g
- ALP [5]: 971.8 IU/L
- ALT [5]: 40.6 IU/L
- AST [5]: 63 IU/L
- BUN [5]: 22.6 mg/dL
- CRE [5]: 0.5 mg/dL
- Ca [5]: 11.2 mg/dL
- DBIL [5]: 0.016 mg/dL
- GLC [5]: 193.4 mg/dL
- IP [5]: 8.2 mg/dL
- K [5]: 5 meq/L
- LDH [5]: 90.4 IU/L
- Na [5]: 135.2 meq/L
- PL [5]: 148.8 mg/dL
- RALB [5]: 3.9 g/dL
- TBIL [5]: 0.4 mg/dL
- TC [5]: 82.4 mg/dL
- TG [5]: 93.4 mg/dL
- TP [5]: 5.8 g/dL
- gamma-GTP [5]: 1.4 IU/L
- TERMINAL_BW [6]: 249.2 g
- TERMINAL_BW [7]: 310.3 g
- TERMINAL_BW [8]: 359.7 g
- APTT [6]: 16.3 s
- Bas [6]: 0%
- Eos [6]: 1.2%
- Hb [6]: 12.7 g/dL
- Ht [6]: 37.9%
- Lym [6]: 82.4%
- MCH [6]: 21.3 pg
- MCHC [6]: 33.5%
- MCV [6]: 63.6 fL
- Mono [6]: 4.6%
- Neu [6]: 11.8%
- Plat [6]: 123.8 x10_4/uL
- RBC [6]: 595.6 x10_4/ul
- Ret [6]: 4%
- WBC [6]: 141 x10_2/uL
- APTT [7]: 16.7 s
- Bas [7]: 0%
- Eos [7]: 1.2%
- Hb [7]: 12.7 g/dL
- Ht [7]: 37.6%
- Lym [7]: 81.8%
- MCH [7]: 20.6 pg
- MCHC [7]: 33.6%
- MCV [7]: 61.4 fL
- Mono [7]: 4.6%
- Neu [7]: 12.4%
- PT [7]: 11.5 s
- Plat [7]: 122.1 x10_4/uL
- RBC [7]: 614 x10_4/ul
- Ret [7]: 3.1%
- WBC [7]: 160.2 x10_2/uL
- APTT [8]: 16.4 s
- Bas [8]: 0%
- Eos [8]: 1.2%
- Hb [8]: 13.4 g/dL
- Ht [8]: 40.3%
- Lym [8]: 90.2%
- MCH [8]: 20 pg
- MCHC [8]: 33.2%
- MCV [8]: 60.1 fL
- Mono [8]: 2.8%
- Neu [8]: 6%
- PT [8]: 11.9 s
- Plat [8]: 96.2 x10_4/uL
- RBC [8]: 671.8 x10_4/ul
- Ret [8]: 3.7%
- WBC [8]: 236.5 x10_2/uL
- KIDNEY_L [6]: 1.2 g
- KIDNEY_R [6]: 1.3 g
- KIDNEY_TOTAL [6]: 2.5 g
- KIDNEY_L [7]: 1.3 g
- KIDNEY_R [7]: 1.4 g
- KIDNEY_TOTAL [7]: 2.7 g
- KIDNEY_L [8]: 1.5 g
- KIDNEY_R [8]: 1.6 g
- KIDNEY_TOTAL [8]: 3.1 g
- LIVER [7]: 13.5 g
- LIVER [8]: 15.1 g
- ALP [6]: 755.6 IU/L
- ALT [6]: 32.2 IU/L
- AST [6]: 53.8 IU/L
- BUN [6]: 46.4 mg/dL
- CRE [6]: 0.6 mg/dL
- DBIL [6]: 0.012 mg/dL
- GLC [6]: 192.8 mg/dL
- IP [6]: 7.7 mg/dL
- K [6]: 5.2 meq/L
- LDH [6]: 78.6 IU/L
- Na [6]: 136.8 meq/L
- PL [6]: 141.4 mg/dL
- RALB [6]: 3.5 g/dL
- TBIL [6]: 0.4 mg/dL
- TC [6]: 88.2 mg/dL
- TG [6]: 52.6 mg/dL
- TP [6]: 5.6 g/dL
- gamma-GTP [6]: 2 IU/L
- ALP [7]: 859.4 IU/L
- ALT [7]: 35.2 IU/L
- AST [7]: 58.8 IU/L
- BUN [7]: 38.8 mg/dL
- CRE [7]: 0.6 mg/dL
- DBIL [7]: 0.008 mg/dL
- GLC [7]: 191.8 mg/dL
- IP [7]: 7.8 mg/dL
- K [7]: 5 meq/L
- LDH [7]: 78.2 IU/L
- Na [7]: 133.8 meq/L
- PL [7]: 151.8 mg/dL
- RALB [7]: 3.7 g/dL
- TBIL [7]: 0.4 mg/dL
- TC [7]: 80.6 mg/dL
- TG [7]: 85.6 mg/dL
- TP [7]: 5.7 g/dL
- gamma-GTP [7]: 1.2 IU/L
- ALP [8]: 768 IU/L
- ALT [8]: 45 IU/L
- AST [8]: 71.5 IU/L
- BUN [8]: 32 mg/dL
- CRE [8]: 0.6 mg/dL
- DBIL [8]: 0.015 mg/dL
- GLC [8]: 207 mg/dL
- IP [8]: 7.7 mg/dL
- K [8]: 4.6 meq/L
- LDH [8]: 110.2 IU/L
- Na [8]: 135.8 meq/L
- PL [8]: 127.8 mg/dL
- RALB [8]: 3.6 g/dL
- TBIL [8]: 0.5 mg/dL
- TC [8]: 69 mg/dL
- TG [8]: 72.8 mg/dL
- TP [8]: 5.7 g/dL
- gamma-GTP [8]: 0.8 IU/L
